Results: US12312332B2 (Merck Sharp & Dohme LLC., priority 2019, dated 2025)
Each block holds one compound with its values, some of them ahead of it.

Biological target: T1, human OX2R (Homo sapiens, UniProt O43614)
T1 construct: expressed in transfected cells; host or cells: Chinese hamster ovary (CHO) cells, kept under G418 selection
T1 sequence (O43614 1-444): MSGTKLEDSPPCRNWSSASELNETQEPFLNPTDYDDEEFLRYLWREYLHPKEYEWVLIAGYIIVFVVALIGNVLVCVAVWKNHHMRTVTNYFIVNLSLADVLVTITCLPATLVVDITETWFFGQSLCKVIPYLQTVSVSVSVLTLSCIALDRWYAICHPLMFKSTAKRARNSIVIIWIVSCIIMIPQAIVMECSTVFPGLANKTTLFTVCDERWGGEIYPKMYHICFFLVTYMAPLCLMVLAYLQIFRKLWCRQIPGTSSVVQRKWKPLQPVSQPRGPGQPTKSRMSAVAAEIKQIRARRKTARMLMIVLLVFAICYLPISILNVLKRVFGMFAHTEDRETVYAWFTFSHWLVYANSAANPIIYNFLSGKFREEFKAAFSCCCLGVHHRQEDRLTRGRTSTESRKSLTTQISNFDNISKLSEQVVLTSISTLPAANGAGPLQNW
Assay: IPOne (IP-One) orexin receptor agonist assay in CHO cells expressing human OX2R
Type: cell-based
Conditions: for EC50: CHO cells expressing human OX2R, IP-One detection, 2 hours incubation, four parameter logistic fit, read-out: OX2R Potency, EC50; for % max agonist effect (Emax): human OX2R, percentage of sample raw value/mean max effect (reference compound at 1 uM with 100% activity)
Excerpt: The utility of the compounds in accordance with the present invention as orexin receptor OX1R and/or OX2R agonists may be readily determined without undue experimentation by methodology well known in the art. Both the OX1R and/or OX2R G-coupled protein receptors (GPCRs) couple through the Gaq signaling pathway, which ultimately promotes calcium mobilization via inositol triphosphate (IP3) production. […] The utility of the compounds in accordance with the present invention as orexin receptor OX1R and/or OX2R agonists may be determined utilizing this assay.
In a typical experiment, the OX1 and OX2 receptor agonist activity is determined in accordance with the following general experimental method. Chinese hamster ovary (CHO) cells expressing human OX1R and/or the human OX2R were grown in Iscove's modified DMEM containing glutaMAX™, 1% G418, 100 U/mL penicillin, 100 μg/mL streptomycin and 10% heat-inactivated qualified fetal bovine serum (FBS). […] During this incubation, IP-one detection reagents were prepared (38:1:1 lysis buffer:D2:AB-cryptate reagents).
For each compound, data were fit to a four parameter logistic fit (ActivityBase software) and the EC50 was reported as the inflection point of the resulting curve. Percent effect for each test compound was determined as the percentage of sample raw value/mean max effect, where the mean max effect was derived from the mean raw value of 32 control wells per assay plate (using Orexin A (cat #003-30) at 1 μM for human OX1R and a reference compound at 1 uM with 100% activity previously established by comparison to Orexin A for human OX2R). The intrinsic orexin receptor agonist activity of a compound which may be used in the present invention may be determined by these assays.

Structure (SMILES): CS(=O)(=O)N[C@H]1CCN(c2ccnc(CO)c2)[C@H]1CO[C@H]1CC[C@@H](c2ccccc2)CC1 [Example 43, N-((2R,3S)-1-(2-(hydroxymethyl)pyridin-4-yl)-2-((((CIS)-4-phenylcyclohexyl)oxy)methyl)pyrrolidin-3-yl)methanesulfonamide]
EC50: 3.54 µM
% max agonist effect (Emax): 90.4%

Structure (SMILES): CC(C)(O)c1cc(N2CC[C@H](NS(C)(=O)=O)[C@@H]2CO[C@H]2CC[C@@H](c3ccccc3)CC2)ccn1 [Example 44, N-((2R,3S)-1-(2-(2-hydroxypropan-2-yl)pyridin-4-yl)-2-((((CIS)-4-phenylcyclohexyl)oxy)methyl)pyrrolidin-3-yl)methanesulfonamide]
EC50: > 10 µM
% max agonist effect (Emax): 22.0%

Structure (SMILES): Cc1cc(N2CC[C@H](NS(C)(=O)=O)[C@@H]2CO[C@H]2CC[C@@H](c3ccccc3)CC2)cnc1CO [Example 45, N-((2R,3S)-1-(6-(hydroxymethyl)-5-methylpyridin-3-yl)-2-((((CIS)-4-phenylcyclohexyl)oxy)methyl)pyrrolidin-3-yl)methanesulfonamide]
EC50: 1.41 µM
% max agonist effect (Emax): 97.2%

Structure (SMILES): CS(=O)(=O)N[C@H]1CCN(c2cc(C(F)(F)F)ncn2)[C@H]1CO[C@H]1CC[C@@H](c2ccccc2)CC1 [Example 46, N-((2R,3S)-2-((((CIS)-4-phenylcyclohexyl)oxy)methyl)-1-(6-(trifluoromethyl)pyrimidin-4-yl)pyrrolidin-3-yl)methanesulfonamide]
EC50: > 10 µM
% max agonist effect (Emax): 43.4%

Structure (SMILES): CS(=O)(=O)N[C@H]1CCN(c2cncc(O)c2)[C@H]1CO[C@H]1CC[C@@H](c2ccccc2)CC1 [Example 47, N-((2R,3S)-1-(5-hydroxypyridin-3-yl)-2-((((CIS)-4-phenylcyclohexyl)oxy)methyl)pyrrolidin-3-yl)methanesulfonamide]
EC50: 0.009 µM
% max agonist effect (Emax): 101.4%

Structure (SMILES): Cc1nccc(N2CC[C@H](NS(C)(=O)=O)[C@@H]2CO[C@H]2CC[C@@H](c3ccccc3)CC2)n1 [Example 48, N-((2R,3S)-1-(2-methylpyrimidin-4-yl)-2-((((CIS)-4-phenylcyclohexyl)oxy)methyl)pyrrolidin-3-yl)methanesulfonamide]
EC50: 6.83 µM
% max agonist effect (Emax): 77.3%

Structure (SMILES): CS(=O)(=O)N[C@H]1CCN(c2cncc(CO)c2)[C@H]1CO[C@H]1CC[C@@H](c2ccccc2)CC1 [Example 49, N-((2R,3S)-1-(5-(hydroxymethyl)pyridin-3-yl)-2-((((CIS)-4-phenylcyclohexyl)oxy)methyl)pyrrolidin-3-yl)methanesulfonamide]
EC50: 0.217 µM
% max agonist effect (Emax): 99.6%

Structure (SMILES): CS(=O)(=O)N[C@H]1CCN(c2cncc(C(F)(F)F)c2)[C@H]1CO[C@H]1CC[C@@H](c2ccccc2)CC1 [Example 50, N-((2R,3S)-2-((((CIS)-4-phenylcyclohexyl)oxy)methyl)-1-(5-(trifluoromethyl)pyridin-3-yl)pyrrolidin-3-yl)methanesulfonamide]
EC50: 0.944 µM
% max agonist effect (Emax): 95.1%

Structure (SMILES): COc1ccncc1N1CC[C@H](NS(C)(=O)=O)[C@@H]1CO[C@H]1CC[C@@H](c2ccccc2)CC1 [Example 51, N-((2R,3S)-1-(4-methoxypyridin-3-yl)-2-((((CIS)-4-phenylcyclohexyl)oxy)methyl)pyrrolidin-3-yl)methanesulfonamide]
EC50: 0.0142 µM
% max agonist effect (Emax): 100.3%

Structure (SMILES): CS(=O)(=O)N[C@H]1CCN(c2cncc(OC(F)F)c2)[C@H]1CO[C@H]1CC[C@@H](c2ccccc2)CC1 [Example 52, N-((2R,3S)-1-(5-(difluoromethoxy)pyridin-3-yl)-2-((((CIS)-4-phenylcyclohexyl)oxy)methyl)pyrrolidin-3-yl)methanesulfonamide]
EC50: 0.649 µM
% max agonist effect (Emax): 99.2%

Structure (SMILES): COc1ccc(N2CC[C@H](NS(C)(=O)=O)[C@@H]2CO[C@H]2CC[C@@H](c3ccccc3)CC2)cn1 [Example 53, N-((2R,3S)-1-(6-methoxypyridin-3-yl)-2-((((CIS)-4-phenylcyclohexyl)oxy)methyl)pyrrolidin-3-yl)methanesulfonamide]
EC50: 0.223 µM
% max agonist effect (Emax): 100.6%

Structure (SMILES): COc1cc(N2CC[C@H](NS(C)(=O)=O)[C@@H]2CO[C@H]2CC[C@@H](c3ccccc3)CC2)cnc1OC [Example 54, N-((2R,3S)-1-(5,6-dimethoxypyridin-3-yl)-2-((((CIS)-4-phenylcyclohexyl)oxy)methyl)pyrrolidin-3-yl)methanesulfonamide]
EC50: 0.782 µM
% max agonist effect (Emax): 98.9%

Structure (SMILES): COc1ncc(N2CC[C@H](NS(C)(=O)=O)[C@@H]2CO[C@H]2CC[C@@H](c3ccccc3)CC2)cc1C [Example 55, N-((2R,3S)-1-(6-methoxy-5-methylpyridin-3-yl)-2-((((CIS)-4-phenylcyclohexyl)oxy)methyl)pyrrolidin-3-yl)methanesulfonamide]
EC50: 2.38 µM
% max agonist effect (Emax): 91.4%

The remaining lines, values ahead:

EC50: > 10 µM
% max agonist effect (Emax): 61.6%
Structure (SMILES): CS(=O)(=O)N[C@H]1CCN(c2ccncc2CO)[C@H]1CO[C@H]1CC[C@@H](c2ccccc2)CC1 [Example 56, N-((2R,3S)-1-(3-(hydroxymethyl)pyridin-4-yl)-2-((((CIS)-4-phenylcyclohexyl)oxy)methyl)pyrrolidin-3-yl)methanesulfonamide]

EC50: 4.05 µM
% max agonist effect (Emax): 87.6%
Structure (SMILES): CS(=O)(=O)N[C@H]1CCN(c2ccncc2)[C@H]1CO[C@H]1CC[C@@H](c2ccccc2)CC1 [Example 57, N-((2R,3S)-2-((((CIS)-4-phenylcyclohexyl)oxy)methyl)-1-(pyridin-4-yl)pyrrolidin-3-yl)methanesulfonamide]

EC50: 0.162 µM
% max agonist effect (Emax): 100.9%
Structure (SMILES): CS(=O)(=O)N[C@H]1CCN(c2ccc(OC(F)F)nc2)[C@H]1CO[C@H]1CC[C@@H](c2ccccc2)CC1 [Example 58, N-((2R,3S)-1-(6-(difluoromethoxy)pyridin-3-yl)-2-((((CIS)-4-phenylcyclohexyl)oxy)methyl)pyrrolidin-3-yl)methanesulfonamide]

EC50: 2.86 µM
% max agonist effect (Emax): 87.2%
Structure (SMILES): COc1cc(N2CC[C@H](NS(C)(=O)=O)[C@@H]2CO[C@H]2CC[C@@H](c3ccccc3)CC2)ccn1 [Example 59, N-((2R,3S)-1-(2-methoxypyridin-4-yl)-2-((((CIS)-4-phenylcyclohexyl)oxy)methyl)pyrrolidin-3-yl)methanesulfonamide]

EC50: 0.251 µM
% max agonist effect (Emax): 100.0%
Structure (SMILES): Cc1ncc(N2CC[C@H](NS(C)(=O)=O)[C@@H]2CO[C@H]2CC[C@@H](c3ccccc3)CC2)cn1 [Example 60, N-((2R,3S)-1-(2-methylpyrimidin-5-yl)-2-((((CIS)-4-phenylcyclohexyl)oxy)methyl)pyrrolidin-3-yl)methanesulfonamide]

EC50: 0.0383 µM
% max agonist effect (Emax): 101.3%
Structure (SMILES): CC(C)(O)c1ccc(N2CC[C@H](NS(C)(=O)=O)[C@@H]2CO[C@H]2CC[C@@H](c3ccccc3)CC2)cn1 [Example 61, N-((2R,3S)-1-(6-(2-hydroxypropan-2-yl)pyridin-3-yl)-2-((((CIS)-4-phenylcyclohexyl)oxy)methyl)pyrrolidin-3-yl)methanesulfonamide]

EC50: 0.33 µM
% max agonist effect (Emax): 100.6%
Structure (SMILES): Cc1cncc(N2CC[C@H](NS(C)(=O)=O)[C@@H]2CO[C@H]2CC[C@@H](c3ccccc3)CC2)n1 [Example 62, N-((2R,3S)-1-(6-methylpyrazin-2-yl)-2-((((CIS)-4-phenylcyclohexyl)oxy)methyl)pyrrolidin-3-yl)methanesulfonamide]

EC50: 0.331 µM
% max agonist effect (Emax): 101.1%
Structure (SMILES): CS(=O)(=O)N[C@H]1CCN(c2ncc(F)cc2F)[C@H]1CO[C@H]1CC[C@@H](c2ccccc2)CC1 [Example 63, N-((2R,3S)-1-(3,5-difluoropyridin-2-yl)-2-((((CIS)-4-phenylcyclohexyl)oxy)methyl)pyrrolidin-3-yl)methanesulfonamide]

EC50: 0.0463 µM
% max agonist effect (Emax): 101.1%
Structure (SMILES): COc1cncc(N2CC[C@H](NS(C)(=O)=O)[C@@H]2CO[C@H]2CC[C@@H](c3ccccc3)CC2)c1 [Example 64, N-((2R,3S)-1-(5-methoxypyridin-3-yl)-2-((((CIS)-4-phenylcyclohexyl)oxy)methyl)pyrrolidin-3-yl)methanesulfonamide]
